The text below walks through data of patent US7173021B2, “Synthesis of temozolomide esters as potent anticancer pro-drugs for topical and transdermal applications in treatments of cancers” (Tianjin North Pharm Sci-Tech Co., Ltd., priority 2004, dated 2007).

In one data set the test system is TJ905 (human glioma). The data set is described as follows: In vitro tumour cell growth inhibition (MTT), TJ905. It is filed as cell-based. The note with it: Homo sapiens, Table 2 experiment, 96 h. Here is the method: (§1) Temozolomide (white powder), temozolomide acid (white powder) and temozolomide-8-carboxylate hexyl (white scale crystal) were made in house. For the estimation of in vitro tumour cell growth inhibition, MV3 (human melanoma), M14 (human melanoma), B16 and B16-BL6 (mouse melanoma), SHG-44, TJ899 and TJ905 (human glioma), MCF-7 (human breast), HCT-8 (human colon), A549 (human non small lung), Bel7402 (human hepatocellulor), and BGC-823 (human stomach) were used. All tumour cells were cultured in RPMI-1640 medium supplemented with 10% fetal bovine serum (FBS) at 37° C. in a humidified 5% CO2 incubator.
(§2) After being harvested from culture flasks, a cell suspension of 1×10^4/ml was made by using 1640 RPMI medium supplemented with 10% fetal bovine serum. 100 μl (contains 1000 tumour cells) of the cell suspension was seeded per well of 96-well flat-bottom Costar culture plates at 37° C. in a humidified 5% CO2 incubator for 24 hrs before introducing drugs. Each tested compounds was made for five different concentrations and 100 μl of the each concentration was introduced into parallel three wells; control wells were added with 100 μl of plain medium alone; fluorouracil (a chemotherapeutic antitumour drug) was used as the positive control. Cells were then incubated for 96 h. Proliferative response and cell death were determined using MTT (3-(4,5-dimethylthiazolyl)-2,5-diphenyl-tetrazolium bromide) assay.
(§3) MTT assay: Following incubation of cells with the tested compounds for 96 h, 100 μl of 0.4 mg/ml MTT in RPMI 1640 was added to each well and the plate was incubated at 37° C. for 4 h. The plate was then centrifuged and followed by removal of medium. 150 μl of DMSO was then added to dissolve formazan crystal. DMSO-added plates were placed on a plate shaker for 5 min and absorbance was measured spectrophotometrically at 540 nm (with reference wavelength at 450 nm) using a Benchmark microtiter plate reader (Bio-Rad 550, Bio-Rad Laboratories, CA, U.S.A.).
(§4) The IC50 was calculated from the curve of the tested compound concentrations against the inhibition rate of the tumour cells. Table 1 summarized the experiment results by using six human cancer cell lines, HCT-8 (colon carcinoma), A549 (non small lung carcinoma), MCF-7 (breast), Bel7402 (hepatocellulor carcinoma), BGC-823 (stomach adenocarcinoma), and MV3 (melanoma). Table 2 summarized the results from the experiment results by using two human melanoma cell lines, MV3 and M14, two mouse melanoma cell lines, B16 and B16-BL6, and three human glioma cell lines, TJ899, SHG-44 and TJ905.

In data set [1] the test system is Bel7402 (human hepatocellulor). The data set is described as follows: In vitro tumour cell growth inhibition (MTT), Bel-7402. It is filed as cell-based. The note with it: Table 1 experiment, 96 h. Here is the method: as §1, §2, §3
The IC50 was calculated from the curve of the tested compound concentrations against the inhibition rate of the tumour cells. […]

A further data set deals with SHG-44 (human glioma). The data set is described as follows: In vitro tumour cell growth inhibition (MTT), SHG-44. In kind it is cell-based. The note with it: Homo sapiens, SHG-44, Table 2 experiment, 96 h. As for the experimental part: as §1, §2, §3, §4
The test system of a further data set is M14 (human melanoma). The data set is described as follows: In vitro tumour cell growth inhibition (MTT), M14. In kind it is cell-based. The note with it: Homo sapiens, Table 2 experiment, 96 h. Here is the method:
as §1, §2, §3, §4

The next data set deals with MV3 melanoma (human). Briefly: In vivo antitumour activity, BALB/c nude mice inoculated with MV3 melanoma, topical application. The note with it: 20 mg/mouse/day topical. Here is the method: The temozolomide hexyl ester is chosen to conduct an in viva antitumour test. BALB/c nude mice were inoculated with MV3 melanoma (human). Once the tumour volume became 100–300 mm^3, the mice were divided into a controlled and a tested group of eight with a rational distribution of the mice according to the sizes of the tumours. The tested group was treated with 5% (W/V) free made dimethyl sulfoxide (DMSO) solution of the temozolomide hexyl ester twice a day (once on Saturday and Sunday) via repeated topical application (total dosage is 20 mg/mouse/day), while the controlled group was left to grow naturally. In a period of two-week experiment, the tumour growth in the mice was carefully recorded through body weighing and the measurement of the tumour sizes. After two weeks, the mice were scarified; tumour bulks were separated and weighed. The results of inhibition of tumour growth by the temozolomide hexyl ester are summarized in Table 5 and depicted in FIG. 10.
Preparation of 5% (W/V) DMSO solution of the temozolomide hexyl ester is carried out by weighing a actual amount of the temozolomide hexyl ester, then using DMSO to make the concentration to 50 mg/ml. After temozolomide hexyl ester is completely dissolved and a clear solution is obtained, the fresh made 5% (W/V) DMSO solution of the temozolomide hexyl ester is used in the experiments.
BALB/c nude mice were inoculated with MV3 melanoma (human). Once the tumour bulk became 100–300 mm^3, the mice were divided into a controlled and a tested group with a rational distribution of the mice according to the sizes of the tumours. Each group is consisted of 8 mice.
The tested group was treated with 5% (W/V) DMSO solution of the temozolomide hexyl ester twice a day (once on Saturday and Sunday) via repeated topical application on position of tumour and around of 2×2 cm^2 region (total dosage is 20 mg/mouse/day); while the controlled group was left free of treatment to allow the tumour to growth naturally.
The tumour volumes (TV) in the mice were measured for twice of a week, calculated using TV(mm^3)=(length×width^2)÷2, and carefully recorded and finally depicted in FIG. 10. After two weeks, the mice were scarified; tumour bulks were isolated, weighed and calculated the growth inhibition rate of MV3 melanoma (human) in BALB/c nude mice by the temozolomide hexyl ester. The antitumour activity of the temozolomide hexyl ester against MV3 melanoma (human) in BALB/c nude mice is evaluated by the relative tumour proliferation ratio (T/C %). T/C (%) is calculated by the following equation:
Where, RTV=Vt/Vo (Vo is the tumour volume (TV) at the time when the mice were divided into the tested group and the controlled group; Vt is the tumour volume (TV) were measured at each time interval FIG. 10). The criteria for effectiveness are (1) when T/C (%)>60, the compound is no effect; (2) when T/C (%)≦60 and statistically significant P<0.05, the compound is effect. In the case of the temozolomide hexyl ester, the T/C (%) in BALB/c nude mice bearing MV3 melanoma (human) is 33.7% (Table 3) and P<0.05.

Values after ≈ are worked out from the molar mass of the structure shown. Marks after values point to notes of the source that are not given here. A value given as a limit tells only on which side of the number the result lay.

Take `CCCCCCOC(=O)c1ncn2c(=O)n(C)nnc12` [temozolomide hexyl ester, Hexyl 3,4-dihydro-3-methyl-4-oxoimidazo[5,1-d]-1,2,3,5-tetrazine-8-carboxylate]: the IC50 (in general, the concentration at which inhibition is half-maximal) in the data set with TJ905 (human glioma) is greater than 100 µg/mL; in data set [1], 27.2 µg/mL (≈ 97.4 µM); in the data set with SHG-44 (human glioma), 9.46 µg/mL (≈ 33.9 µM); with M14 (human melanoma) it was greater than 100 µg/mL. Moreover, the “Body weight, end” value in the data set on MV3 melanoma (human) (after two weeks, mean ± SD) is 22.9 ± 2.23 g. In addition, the Tumour weight in the data set on MV3 melanoma (human) (after two weeks, mean ± SD) turned out to be 0.41 ± 0.318 g. The “Tumour volume, end” value with MV3 melanoma (human) (after two weeks, mean ± SD, P < 0.05 vs control) is reported as 622 ± 545.1* mm^3. For the same molecule, in the data set on MV3 melanoma (human) (start, mean ± SD), the “Body weight, start” value amounted to 24.0 ± 1.53 g. The “Tumour volume, start” value with MV3 melanoma (human) (start, mean ± SD) came out at 116 ± 27 mm^3. This molecule also came in with an RTV in the data set on MV3 melanoma (human) (RTV=Vt/Vo, two weeks) of 3.01 ± 1.95. Moreover, in the data set on MV3 melanoma (human) (from tumour weight, two weeks), the “Inhibition (%) of tumour growth” value is reported as 80.5%. In addition, the “T/C (%)” value in the data set with MV3 melanoma (human) (relative tumour proliferation ratio, two weeks) is on record as 33.7%.
